test: LogP of the perfume ingredients; type: physicochemical; settings: perfume ingredients of Table 1a

logP | Compound
4.31 | CC1C(C)(C)C2=C(C(=O)CCC2)C1(C)C (stereo not shown) [Cashmeran®, 1,2,3,5,6,7-Hexahydro-1,2,3,3-pentamethyl-4h-inden-4-one]
3.47 | C=CC(C)CCCC(C)(C)O (stereo not shown) [Dihydromyrcenol]
4.47 | C=CC(C)CCCC(C)(C)OC(C)=O (stereo not shown) [Dihydromyrcenyl acetate]

same assay, conditions: perfume ingredients of Table 1a; read-out: LogP

Compound | logP
CCCCCCCCCC(C)C=O (stereo not shown) [2-Methylundecanal] | 4.67
CC12CCC(CC1=O)C2(C)C (stereo not shown) [Camphor] | 3.04
C=CC(C)(CCC=C(C)C)OC(C)=O (stereo not shown) [Linalyl acetate] | 4.39

Continued, values first:

logP | Compound
3.13 | CC12CCC(CC1)C(C)(C)O2 [Eucalyptol]
4.84 | CC(=O)C(C)=CC1C(C)=CCCC1(C)C (stereo not shown) [Isoraldeine® 70, 3-Methyl-4-(2,6,6-trimethyl-2cyclohexen-1-yl)-3-buten-2-one]
2.87 | CC(C)[C@@H]1CC[C@@H](C)CC1=O [Menthone]
5.18 | CC(C)=CCCC1=CCC(C)(C=O)CC1 (stereo not shown) [Precyclemone B, 1-Methyl-4-(4-methyl-3-pentenyl)cyclohex-3-ene-1-carboxaldehyde]
